Data reported in patent US9023789B2, “Amylin analogs and pharmaceutical compositions thereof” (Novo Nordisk A/S, priority 2012, dated 2015).

Key:
[1] = target: T1, human amylin receptor (membranes from Amylin 3(a)/CRE-luc cells) (Homo sapiens, UniProt O60896+P30988); test: ASSAY (V) binding to the human amylin receptor (SPA, 125I-rat amylin);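 note: competition binding of cell membranes (35 ng/µL) mixed with SPA beads in 384-well plates at 40 µL total volume, read by scintillation counting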
T1 construct: expressed in transfected cells
T1 sequence (P30988 25-474): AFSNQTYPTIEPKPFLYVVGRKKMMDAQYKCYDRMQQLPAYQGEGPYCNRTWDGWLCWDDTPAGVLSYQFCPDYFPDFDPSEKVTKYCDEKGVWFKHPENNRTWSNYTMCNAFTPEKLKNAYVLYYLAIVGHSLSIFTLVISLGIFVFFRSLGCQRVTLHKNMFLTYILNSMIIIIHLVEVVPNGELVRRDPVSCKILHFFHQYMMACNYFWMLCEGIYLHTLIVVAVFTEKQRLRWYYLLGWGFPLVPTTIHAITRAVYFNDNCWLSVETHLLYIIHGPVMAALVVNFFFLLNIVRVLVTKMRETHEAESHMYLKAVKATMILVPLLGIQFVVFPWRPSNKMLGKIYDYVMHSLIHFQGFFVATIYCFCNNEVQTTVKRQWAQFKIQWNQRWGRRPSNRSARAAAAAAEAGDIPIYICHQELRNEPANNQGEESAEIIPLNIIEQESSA
T1 sequence (O60896 24-148 partner): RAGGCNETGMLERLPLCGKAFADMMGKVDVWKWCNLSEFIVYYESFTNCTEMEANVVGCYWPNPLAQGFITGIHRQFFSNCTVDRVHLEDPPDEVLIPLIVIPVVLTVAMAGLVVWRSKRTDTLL

[2] = target: T2, rat amylin receptor (rat calcitonin receptor + rat RAMP 3) (Rattus norvegicus, UniProt P32214+Q9JJ73); test: ASSAY (VI) binding to the rat amylin receptor
T2 construct: expressed in transfected cells; host or cells: BHK tk'ts 13 (transient, FuGENE 6), membranes
T2 sequence (P32214 25-479 isoform P32214-2 limits assumed): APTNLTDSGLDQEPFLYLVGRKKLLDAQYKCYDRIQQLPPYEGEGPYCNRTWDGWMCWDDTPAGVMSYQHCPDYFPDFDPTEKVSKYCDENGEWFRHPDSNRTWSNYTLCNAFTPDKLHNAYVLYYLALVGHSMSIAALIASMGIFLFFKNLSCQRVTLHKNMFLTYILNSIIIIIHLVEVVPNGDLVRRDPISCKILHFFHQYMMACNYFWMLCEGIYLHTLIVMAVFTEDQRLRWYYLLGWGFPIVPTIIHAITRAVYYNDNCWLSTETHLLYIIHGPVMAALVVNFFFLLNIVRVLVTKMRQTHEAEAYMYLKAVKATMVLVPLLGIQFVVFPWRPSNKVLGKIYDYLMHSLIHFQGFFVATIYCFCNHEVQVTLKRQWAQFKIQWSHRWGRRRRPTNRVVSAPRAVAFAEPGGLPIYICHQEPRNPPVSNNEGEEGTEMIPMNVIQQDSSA
T2 sequence (Q9JJ73 23-147 partner): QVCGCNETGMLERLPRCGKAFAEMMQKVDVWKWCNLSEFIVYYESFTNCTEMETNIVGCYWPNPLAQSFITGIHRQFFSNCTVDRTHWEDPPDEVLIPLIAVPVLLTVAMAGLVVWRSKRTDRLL
Protocol: Assay (VI)—Determination of the Binding to the Rat Amylin Receptor […] The BHK tk′ts 13 cells were transiently transfected with rat calcitonin receptor using FuGENE® 6 (Roche), according to the manufacturer's recommendations. […] Approximately 48 hours after transfection, the cells were harvested and membranes were prepared.

Sprague Dawley (SD) rats = test: ASSAY (I) efficacy testing on appetite (food intake) using an ad libitum fed rat model; assay type: in vivo; settings: rat, 30 nmol/kg
Description: Sprague Dawley (SD) rats from Taconic Europe, Denmark are used for the experiments. The rats have a body weight 200-250 g at the start of experiment. The rats arrive at least 10-14 days before start of experiment to allow acclimatization to experimental settings. During this period the animals are handled at least 2 times. After arrival rats are housed individually for one week in a reversed light/dark phase (meaning that lights are off during daytime and on during nighttime) for two weeks. Since rats are normally active and eat their major part of their daily food intake during the dark period, rats are dosed in the morning right before lights are turned off. This set-up results in the lowest data variation and highst test sensitivity. The experiment is conducted in the rats' home cages and rats have free access to food and water throughout the acclimatization period and the experiment period. Each dose of derivative is tested in a group of 5-8 rats. A vehicle group of 6-8 rats is included in each set of testing. Rats are dosed once according to body weight with a 0.01-3 mg/kg solution administered intraperitoneally (ip), orally (po) or subcutaneously (sc). The time of dosing is recorded for each group. After dosing, the rats are returned to their home cages, where they then have access to food and water. The food consumption is recorded individually continuously by online registration or manually every hour for 7 hours, and then after 24 h and sometimes 48 h. At the end of the experimental session, the animals are euthanized.
The individual data are recorded in Microsoft excel sheets. Outliers are excluded after applying the Grubbs statistical evaluation test for outliers, and the result is presented graphically using the GraphPad Prism program.

[3] = target: T3, human amylin 3(a) receptor (human calcitonin receptor + RAMP-3) in BHK570 cells (Homo sapiens, UniProt O60896+P30988); test: ASSAY (II)a functional assay, human amylin receptor (CRE luciferase); assay type: cell-based
T3 construct: expressed in transfected cells
Description: 1. Luciferase Assay Outline
Activation of calcitonin and amylin (coexpression of calcitonin receptor and receptor activity modifying proteins (RAMP)) receptors lead to increased intracellular concentrations of cAMP. Consequently, transcription is activated by promoters containing multiple copies of the cAMP response element (CRE). It is thus possible to measure amylin activity by the use of a CRE luciferase reporter gene introduced into BHK cells also expressing calcitonin or amylin receptors.
2. Construction of Calcitonin (a)- and Amylin 3(a)-Receptor/CRE-Luc Cell Line.
The cell line was further transfected with RAMP-3, using standard methods. This turns the calcitonin receptor into an amylin 3(a) receptor. Methotrexate, Neomycin, and Hygromycin are selection markers for luciferase, the calcitonin receptor, and RAMP-3, respectively.
To perform activity assays, BHK calcitonin (a) receptor- or amylin 3(a)-receptor/CRE-luc cells were seeded in white 96 well culture plates at a density of about 20.000 cells/well. […] After incubation overnight at 37° C. and 5% CO2, the growth medium was replaced by 50 μl/well assay medium (DMEM (without phenol red), Glutamax™, 10% FBS, and 10 mM Hepes, pH 7.4). Further, 50 μl/well of standard or sample in assay buffer were added. After 3 hours incubation at 37° C. and 5% CO2, the assay medium with standard or sample were removed and replaced by 100 μl/well PBS. Further, 100 μl/well LucLite™ was added. The plates were sealed and incubated at room temperature for 30 minutes. Finally, luminescence was measured on a TopCounter (Packard) in SPC (single photon counting) mode.

rat calcitonin receptor = target: T4, rat calcitonin receptor (Rattus norvegicus, UniProt P32214); test: ASSAY (VIII) binding to the rat calcitonin receptor; settings: Table 7, read-out: rCTR bind IC50
T4 construct: expressed in transfected cells; host or cells: BHK tk'ts 13 (transient, FuGENE 6), membranes
T4 sequence (P32214 25-479 isoform P32214-2 limits assumed): T2 sequence (P32214 25-479 isoform P32214-2 limits assumed)
Protocol: Assay (VIII)—Determination of Binding to the Rat Calcitonin Receptor
The BHK tk′ts 13 cells were transiently transfected with rat calcitonin receptor using FuGENE® 6 (Roche), according to the manufacturer's recommendations. Cells were grown in DMEM with 10% FBS and 1% Pen/Strep. Approximately 48 hours after transfection, the cells were harvested and membranes were prepared.

Compound: CC[C@H](C)[C@H](NC(=O)[C@H](C)NC(=O)CNC(=O)[C@H](Cc1ccccc1)NC(=O)[C@H](CC(N)=O)NC(=O)[C@@H]1CCCN1C(=O)[C@H](CO)NC(=O)[C@H](CO)NC(=O)[C@H](Cc1c[nH]cn1)NC(=O)[C@H](CCCNC(=N)N)NC(=O)[C@H](CC(C)C)NC(=O)[C@H](Cc1ccccc1)NC(=O)[C@@H](CC(=O)O)NC(=O)[C@H](C)NC(=O)[C@H](CC(C)C)NC(=O)[C@H](CCCNC(=N)N)NC(=O)[C@H](CCC(N)=O)NC(=O)[C@@H](NC(=O)[C@H](C)NC(=O)[C@@H]1CSSC[C@H](NC(=O)[C@@H](N)CCCCNC(=O)CC[C@H](NC(=O)CC[C@H](NC(=O)CCCCCCCCCCCCCCCCCCC(=O)O)C(=O)O)C(=O)O)C(=O)N[C@@H](CC(N)=O)C(=O)N[C@@H]([C@@H](C)O)C(=O)N[C@@H](C)C(=O)N[C@@H]([C@@H](C)O)C(=O)N1)[C@@H](C)O)C(=O)N1CCC[C@H]1C(=O)N[C@@H](CO)C(=O)N[C@@H](CO)C(=O)N[C@H](C(=O)N[C@@H](CC(N)=O)C(=O)N[C@H](C(=O)NCC(=O)N[C@@H](CO)C(=O)N[C@@H](CCCNC(=N)N)C(=O)N[C@H](C(=O)N[C@@H](Cc1ccc(O)cc1)C(N)=O)[C@@H](C)O)C(C)C)[C@@H](C)O [Example 131]
- Ratio hCT/hAmylin binding ([1]; Table 5, selectivity, hCTR bind IC50 / hAmylin-R bind IC50): 306.6
- Ratio hCT/hAmylin binding ([1]; Table 5a, selectivity, hCTR bind IC50 / hAmylin-R bind IC50): 306.6
- Ratio hCT/hAmylin binding ([1]; Table 5b, selectivity, hCTR bind IC50 / hAmylin-R bind IC50): 306.6
- Ratio hCT/hAmylin binding ([1]; Table 5c, selectivity, hCTR bind IC50 / hAmylin-R bind IC50): 306.6
- Ratio hCT/hAmylin binding ([1]; Table 7, human binding selectivity, included for comparison): 306.6
- Ratio hCT/hAmylin binding ([1]; Table 7a (preferred compounds), human binding selectivity, included for comparison): 306.6
- Ratio hCT/hAmylin binding ([1]; ratio of human calcitonin receptor binding IC50 to human amylin receptor binding IC50): 306.6
- IC50 ([2]; Table 7, binding to rat amylin receptor, read-out: rAmylin-R bind IC50): 1.69 nM
- Ratio rCT/rAmylin binding ([2]; Table 7, rat binding selectivity, rCTR IC50 / rAmylin-R IC50): 316.7
- Ratio rCT/rAmylin binding ([2]; Table 7a (preferred compounds), rat binding selectivity, rCTR IC50 / rAmylin-R IC50): 316.7
- Ratio rCT/rAmylin binding ([2]; ratio of rCTR bind IC50 to rAmylin-R bind IC50): 316.7
- Food intake reduction 0-24 h 30 nmol/kg (%) (Sprague Dawley (SD) rats; 0-24 h): 17%
- Food intake reduction 24-48 h 30 nmol/kg (%) (Sprague Dawley (SD) rats; 24-48 h): 14%
- Ratio hCT/hAmylin funct. ([3]; hCTR funct. EC50 divided by hAmylin-R funct. EC50): 261.1
- Ratio hCT/hAmylin funct. ([3]; hCTR funct. EC50 over hAmylin-R funct. EC50): 261.1
- Ratio hCT/hAmylin funct. ([3]; human functional selectivity: hCTR funct. EC50 / hAmylin-R funct. EC50): 261.1
- IC50 (rat calcitonin receptor): 536 nM
